Our source for the Kd values is paper PMC12390655 (Viruses, 2025).

In test [1] the target is monopartite NLS peptide (mpNLS) from the SV40 large T antigen (SV40). In words: fluorescence polarisation.
For the next test, the target named is eVP24–KPNA5-ΔIBB complex (Homo sapiens, UniProt O15131). The test can be described thus: biochemical. It counts as binding, Human KPNA5; Ebola VP24.

Ends that are not written are not given here.

On to “Human KPNA5 aa 66–508 (KPNA5-ΔIBB) (domain or fragment)”, for which, in test [1], the Kd (commonly the equilibrium constant for the complex coming apart) is 5.3 µM.

Regarding KRPAATKKAGQAKKKK [bpNLS], the Kd on eVP24–KPNA5-ΔIBB complex is 0.21 µM.

The substance STPPKKKRKVE [mpNLS] registered a Kd at eVP24–KPNA5-ΔIBB complex of 5.2 µM.
